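Step 1: Grow cells in 96-well plates. Step 2: Expose to compound for 48 hours at 5 concentrations. Step 3: Interpolate endpoints linearly; if unreached, use highest concentration. TGI is the concentration that stops growth completely.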 Where a SMILES comes first, the peptide text is derived from it. [ ]: non-standard residue; d: D form. The star is where a group is joined. Cbz = O=C(OCc1ccccc1)*; Aib = CC(C)(N)C(=O)O Where only a bound is given, the exact number is not on record here.

Some test systems named below: 786-0 renal; ACHN renal; CAKI-1 renal; EKVX NSCLC; HCC-2998 colon; HOP-92 NSCLC; MDA-N; NCI-H522 lung; NCI/ADR-RES ovarian; SK-MEL-5 melanoma; SNB-19 CNS; SR leukemia.
Holding throughout (assay): NCI anticancer screen, dose series, 48 h

Take `Fc1ccc2c(c1)nc1n2C(c2c(F)cccc2F)SC1` (stereo not drawn): the TGI in the assay on 786-0 renal, in the assay with ACHN renal, in the assay with CAKI-1 renal, in the assay on EKVX NSCLC, in the assay with HCC-2998 colon and with HOP-92 NSCLC was above 100 µM each time. For the same molecule, the TGI in the assay on MDA-N is above 100 µM; in the assay on NCI-H522 lung it was above 100 µM; with NCI/ADR-RES ovarian, above 100 µM; with SK-MEL-5 melanoma, 68.3 µM; in the assay with SNB-19 CNS, above 100 µM; in the assay on SR leukemia it was 58.5 µM.
Consider `Cn1c2ccccc2c2c3c(c4c5ccccc5n(C)c4c21)C(=O)N(c1ccccc1)C3=O`, for which the TGI in the assay with 786-0 renal, with ACHN renal, in the assay with CAKI-1 renal, with EKVX NSCLC, in the assay on HCC-2998 colon and with HOP-92 NSCLC was above 100 µM each time. In addition, the TGI with MDA-N, in the assay with NCI-H522 lung, with NCI/ADR-RES ovarian, in the assay on SK-MEL-5 melanoma, in the assay with SNB-19 CNS and in the assay with SR leukemia was above 100 µM throughout.
For `CC1=NN(c2nc(N)nc(-c3cc4ccccc4oc3=N)n2)C(C)(C)C1`, the TGI is 29.8 µM with 786-0 renal; 34.8 µM with ACHN renal; 31.1 µM in the assay with CAKI-1 renal; 32.8 µM with EKVX NSCLC; 28.8 µM with HCC-2998 colon; 42.7 µM in the assay with HOP-92 NSCLC. The TGI in the assay with MDA-N was 31.2 µM; with NCI-H522 lung it was 39.9 µM; in the assay on NCI/ADR-RES ovarian, 43.9 µM; with SK-MEL-5 melanoma, 30.6 µM; with SNB-19 CNS, above 100 µM; in the assay on SR leukemia, 46.8 µM.
Turning to `Nc1ccc(C(=O)O)cc1`, the TGI in the assay on 786-0 renal, in the assay with ACHN renal, in the assay on CAKI-1 renal, in the assay on EKVX NSCLC, in the assay with HCC-2998 colon and in the assay with HOP-92 NSCLC was above 100 µM in each case. The TGI with MDA-N, with NCI-H522 lung, in the assay on NCI/ADR-RES ovarian, in the assay on SK-MEL-5 melanoma, in the assay on SNB-19 CNS and with SR leukemia was above 100 µM in each case.
Regarding `COC(=O)/C=C\C(C#N)(C#N)N=Cc1ccc(Br)cc1`, the TGI was above 48.9 µM in the assay with 786-0 renal; 8.92 µM with ACHN renal; 5.47 µM in the assay with CAKI-1 renal; 29.6 µM in the assay on EKVX NSCLC; 32.1 µM with HCC-2998 colon; 6.34 µM with HOP-92 NSCLC. In addition, the TGI in the assay with MDA-N is 20.1 µM; in the assay with NCI-H522 lung it was 2.95 µM; in the assay with NCI/ADR-RES ovarian, 76 µM; in the assay with SK-MEL-5 melanoma, 3.92 µM; in the assay with SNB-19 CNS, 55.2 µM; in the assay on SR leukemia it was above 100 µM.
With `Cn1c(-c2c(C3=CC(=O)N(c4ccccc4)C3=O)c3ccccc3n2C)cc2ccccc21`, the TGI in the assay with 786-0 renal, in the assay on ACHN renal, with CAKI-1 renal, in the assay with EKVX NSCLC, in the assay with HCC-2998 colon and with HOP-92 NSCLC was above 100 µM in each case. The TGI in the assay on MDA-N, in the assay with NCI-H522 lung, with NCI/ADR-RES ovarian, with SK-MEL-5 melanoma, with SNB-19 CNS and in the assay with SR leukemia was above 100 µM throughout.
For `CCOC(=O)C1CCCN1C(=O)c1ccccc1Cl` (stereo not drawn), the TGI in the assay on 786-0 renal, in the assay on ACHN renal, in the assay on CAKI-1 renal, in the assay on EKVX NSCLC, with HCC-2998 colon and in the assay with HOP-92 NSCLC was above 100 µM throughout. The TGI in the assay on MDA-N, with NCI-H522 lung, with NCI/ADR-RES ovarian, in the assay with SK-MEL-5 melanoma, in the assay on SNB-19 CNS and in the assay with SR leukemia was above 100 µM each time.
For the molecule `CC(C)(NC(=O)C(C)(C)NC(=O)OCc1ccccc1)C(=O)O` (Cbz-[Aib]-[Aib]-OH), the TGI in the assay on 786-0 renal, in the assay on ACHN renal, in the assay with CAKI-1 renal, in the assay with EKVX NSCLC, in the assay on HCC-2998 colon and with HOP-92 NSCLC was above 100 µM each time. In addition, the TGI with MDA-N, with NCI-H522 lung, in the assay with NCI/ADR-RES ovarian, in the assay with SK-MEL-5 melanoma, in the assay on SNB-19 CNS and in the assay on SR leukemia was above 100 µM each time.
Take `O=C1c2cc3ncsc3cc2C(=O)c2c(O)ccc(O)c21`: the TGI in the assay with 786-0 renal, in the assay on ACHN renal, in the assay with CAKI-1 renal, with EKVX NSCLC, in the assay on HCC-2998 colon and in the assay on HOP-92 NSCLC was above 100 µM throughout. The TGI in the assay with MDA-N, in the assay with NCI-H522 lung, in the assay on NCI/ADR-RES ovarian, in the assay on SK-MEL-5 melanoma, in the assay on SNB-19 CNS and in the assay on SR leukemia was above 100 µM in each case.
As for `O=C(CN1CCN(c2ccccn2)CC1)N1CCCn2c1nc1ccccc1c2=O`, the TGI in the assay on 786-0 renal, in the assay with ACHN renal, in the assay on CAKI-1 renal, with EKVX NSCLC, with HCC-2998 colon and with HOP-92 NSCLC was above 100 µM in each case. Besides, the TGI in the assay with MDA-N, in the assay on NCI-H522 lung, in the assay on NCI/ADR-RES ovarian, in the assay on SK-MEL-5 melanoma, with SNB-19 CNS and in the assay with SR leukemia was above 100 µM throughout.
Consider `OCC(S)CS.[Bi]` (stereo not drawn), for which the TGI in the assay with 786-0 renal was determined as 39.3 µM; with ACHN renal, 30.6 µM; with CAKI-1 renal, 24.9 µM; with EKVX NSCLC, 45.4 µM; with HCC-2998 colon, 27.5 µM; in the assay on HOP-92 NSCLC it was 44.6 µM. The TGI with MDA-N was 34.4 µM; in the assay with NCI-H522 lung, 12.9 µM; in the assay on NCI/ADR-RES ovarian, above 100 µM; in the assay with SK-MEL-5 melanoma, above 100 µM; in the assay with SNB-19 CNS, 37.3 µM; in the assay on SR leukemia, above 100 µM.
With `CCC(C)N1CN(c2ccccc2)C2(CCN(CCCC3(c4ccc(F)cc4)OCCO3)CC2)C1=O` (stereo not drawn), the TGI in the assay with 786-0 renal was 13.3 µM; with ACHN renal, 14.9 µM; in the assay with CAKI-1 renal, above 68.3 µM; in the assay with EKVX NSCLC, 17.6 µM; in the assay with HCC-2998 colon, 26.9 µM; in the assay on HOP-92 NSCLC, 0.959 µM. The TGI amounted to 17.9 µM with MDA-N; 10.2 µM in the assay with NCI-H522 lung; 27.6 µM in the assay on NCI/ADR-RES ovarian; 8.24 µM with SK-MEL-5 melanoma; 34.6 µM in the assay on SNB-19 CNS; 23.5 µM with SR leukemia.
Turning to `Cc1nccn1S(=O)(=O)c1ccc(Cl)cc1`, the TGI in the assay on 786-0 renal was above 100 µM; with ACHN renal, above 100 µM; with CAKI-1 renal it was above 100 µM; with EKVX NSCLC, above 100 µM; in the assay with HCC-2998 colon it was 88 µM; with HOP-92 NSCLC, 64.3 µM. The TGI in the assay on MDA-N was 51 µM; with NCI-H522 lung it was above 100 µM; with NCI/ADR-RES ovarian, above 100 µM; in the assay on SK-MEL-5 melanoma, above 100 µM; with SNB-19 CNS it was above 100 µM; in the assay with SR leukemia, above 100 µM.
On to `Nc1ccn(CC(O)c2cc3ccccc3[nH]2)c(=O)n1` (stereo not drawn), for which the TGI in the assay with 786-0 renal, in the assay with ACHN renal, in the assay on CAKI-1 renal, in the assay on EKVX NSCLC, in the assay with HCC-2998 colon and with HOP-92 NSCLC was above 100 µM in each case. Moreover, the TGI with MDA-N, with NCI-H522 lung, with NCI/ADR-RES ovarian, with SK-MEL-5 melanoma, in the assay on SNB-19 CNS and in the assay on SR leukemia was above 100 µM each time.

Values taken from PubChem BioAssay (NCI).
